From patent publication US20210380595A1 (ARAXES PHARMA LLC, priority 2018, published 2021)

target: T1, KRAS G12C 1-169, his-tagged protein, GDP-loaded (Homo sapiens, UniProt P01116, G12C); experiment: Biochemical assay: covalent modification of KRAS G12C measured by mass spectrometry (RapidFire/TOF or Q-Exactive); format: binding; conditions: tested at 32 μM; note: time not given here
T1 construct: KRAS G12C 1-169, his-tagged protein, GDP-loaded
Method in brief: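 GDP-loaded KRAS G12C 1-169 (his-tagged, 2 μM or 0.5 μM in 20 mM Hepes, 150 mM NaCl, 1 mM MgCl2) reacted with compound at 32 μM or 8 μM final, then quenched with formic acid. Intact-protein LC-MS (RapidFire/TOF or Q-Exactive) with charge-envelope deconvolution; % modification from modified vs unmodified peak intensities.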

Row | SMILES | Bind %
1 | C=CC(=O)N1CC2(CCN(c3cccc(-c4c(C)ccc5[nH]ncc45)c3C#N)CC2)C1 [Compound I-116, 2-(2-acryloyl-2,7-diazaspiro[3.5]nonan-7-yl)-6-(5-methyl-1H-indazol-4-yl)benzonitrile] | + (+ indicates binding activity greater than 0% and up to 50%)
2 | C=CC(=O)N1CC2(CCN(c3cc(NCc4ccccn4)c(F)c(-c4c(C)ccc5[nH]ncc45)c3C#N)CC2)C1 [Compound I-117, 6-(2-acryloyl-2,7-diazaspiro[3.5]nonan-7-yl)-3-fluoro-2-(5-methyl-1H-indazol-4-yl)-4-((pyridin-2-ylmethyl)amino) benzonitrile] | ++ (++ indicates binding activity from 50 to 75%)
3 | C=CC(=O)N1CC2(CCN(c3ccc(F)c(-c4c(C)ccc5[nH]ncc45)c3Cl)CC2)C1 [Compound I-118, 1-(7-(2-chloro-4-fluoro-3-(5-methyl-1H-indazol-4-yl)phenyl)-2,7-diazaspiro[3.5]nonan-2-yl)prop-2-en-1-one] | + (+ indicates binding activity greater than 0% and up to 50%)
4 | C=CC(=O)N1CC2(CCN(c3cc(OCCCN(C)C)c(F)c(-c4c(C)ccc5cnn(C)c45)c3C#N)CC2)C1 [Compound I-119, 6-(2-acryloyl-2,7-diazaspiro[3.5]nonan-7-yl)-2-(1,6-dimethyl-1H-indazol-7-yl)-4-(3-(dimethylamino)propoxy)-3-fluorobenzo-nitrile] | + (+ indicates binding activity greater than 0% and up to 50%)
5 | C=CC(=O)N1CC2(CCN(c3cc(NCCN4CCCC4)c(F)c(-c4c(C)ccc5[nH]ncc45)c3C#N)CC2)C1 [Compound I-120, 6-(2-acryloyl-2,7-diazaspiro[3.5]nonan-7-yl)-3-fluoro-2-(5-methyl-1H-indazol-4-yl)-4-((2-(pyrrolidin-1-yl)ethyl)amino) benzonitrile] | + (+ indicates binding activity greater than 0% and up to 50%)
6 | C=CC(=O)N1CC2(CCN(c3cc(N4CCCC4)c(F)c(-c4c(C)ccc5[nH]ncc45)c3C#N)CC2)C1 [Compound I-121, 6-(2-acryloyl-2,7-diazaspiro[3.5]nonan-7-yl)-3-fluoro-2-(5-methyl-1H-indazol-4-yl)-4-(pyrrolidin-1-yl)benzonitrile] | + (+ indicates binding activity greater than 0% and up to 50%)
7 | C=CC(=O)N1CC2(CCN(c3cc(OCc4ccccn4)c(Cl)c(-c4c(C)ccc5[nH]ncc45)c3C#N)CC2)C1 [Compound I-122, 6-(2-acryloyl-2,7-diazaspiro[3.5]nonan-7-yl)-3-chloro-2-(5-methyl-1H-indazol-4-yl)-4-(pyridin-2-ylmethoxy) benzonitrile] | ++ (++ indicates binding activity from 50 to 75%)
8 | C=CC(=O)N1CC2(CCN(c3cc(N4CC(N5CCOCC5)C4)c(F)c(-c4c(C)ccc5[nH]ncc45)c3C#N)CC2)C1 [Compound I-123, 6-(2-acryloyl-2,7-diazaspiro[3.5]nonan-7-yl)-3-fluoro-2-(5-methyl-1H-indazol-4-yl)-4-(3-morpholino-azetidin-1-yl)benzonitrile] | + (+ indicates binding activity greater than 0% and up to 50%)
9 | C=CC(=O)N1CC2(CCN(c3cc(N4CCOCC4)c(Cl)c(-c4c(C)ccc5[nH]ncc45)c3C#N)CC2)C1 [Compound I-124, 6-(2-acryloyl-2,7-diazaspiro[3.5]nonan-7-yl)-3-chloro-2-(5-methyl-1H-indazol-4-yl)-4-morpholino-benzonitrile] | + (+ indicates binding activity greater than 0% and up to 50%)
10 | C=CC(=O)N1CC2(CCN(c3cc(OCCCN(C)C)c(Cl)c(-c4c(C)ccc5[nH]ncc45)c3C#N)CC2)C1 [Compound I-125, 6-(2-acryloyl-2,7-diazaspiro[3.5]nonan-7-yl)-3-chloro-4-(3-(dimethylamino)propoxy)-2-(5-methyl-1H-indazol-4-yl)benzonitrile] | ++ (++ indicates binding activity from 50 to 75%)
